According to US20250215032A1, “PHOSPHORYLPURINONE COMPOUNDS FOR THE TREATMENT OF CANCER” (Hoffmann-La Roche Inc., priority 2022, published 2025):
Converted amounts (≈) assume the structure as drawn. Read-outs that look alike come from different tables or passages of the source.

Key:
[1] = Lyophilisation solubility assay (LYSA), kinetic solubility; format: physicochemical; conditions: aqueous buffer; 0.05 M phosphate buffer (pH 6.5), from 10 mM DMSO stock after evaporation
Text: The solubility of a substance can be broadly defined as the maximum amount of the substance that dissolves in a specified volume of solvent. However, it is important to understand that the solubility of a compound can vary drastically depending on the condition of the solvent (e.g. temperature and pH) and the physiochemical properties of the compound (e.g. ionisation and crystallinity). These critical factors need to be considered during solubility determination in order to generate high quality solubility data that will be useful in the progression of compounds through the discovery and development stages. The kinetic solubility of a compound is the maximum solubility of the fastest precipitating species of the compound; this is often measured using a stock solution of the compound dissolved in an organic solvent, typically dimethyl sulfoxide (DMSO), as the starting material. […] The precipitate formed, which is rarely determined during the assessment, could be any combination of various possible solid states of the compound. Given the level of supersaturation that could occur when an organic solvent is diluted in water, kinetic solubility values are typically higher than the corresponding thermodynamic (equilibrium) solubility values. Solubility assays in the early discovery process often determine kinetic solubility. The lyophilisation solubility assay (LYSA) is a high throughput kinetic solubility assay for the early drug discovery process.
Samples were prepared in duplicate from 10 mM DMSO stock solution. After evaporation of DMSO with a centrifugal vacuum evaporator, the compounds were solved in 0.05 M phosphate buffer (pH 6.5), stirred for one hour and shaken for two hours. After one night, the solutions were filtered using a microtiter filter plate. Then the filtrate and its 1/10 dilution were analyzed by HPLC-UV. […] The results were in μg/mL. […] It should be noted that metastable solid phases may form during the evaporation step, and the method might therefore produce higher solubility values than assays using the stable polymorph as the starting material.

[2] = Thermodynamic solubility assay (THESA), equilibrium solubility; format: physicochemical; conditions: 22 °C, aqueous buffer, thermodynamic from solid; 50 mM phosphate buffer (pH 6.5), room temperature (22±2° C.)
Experimental: The thermodynamic (equilibrium) solubility is the saturation solubility of a compound at the end of the dissolution process, where the dissolved compound is in equilibrium with the undissolved material in excess. The thermodynamic solubility is determined by dispensing a solid compound into a solvent. This is often deemed as the true solubility of the compound and is a critical piece of information in formulation development. The thermodynamic solubility assay (THESA) is a widely used tool for the measurement of equilibrium solubility for the later drug discovery process and is considered as a gold standard solubility assay.
Approximately 1-2 mg of each compound was added into 300 μL of 50 mM phosphate buffer (pH 6.5) at room temperature (22±2° C.). Each sample is placed in a microanalysis tube, which was sonicated for 1 h and shaken for 2 h. All suspensions were left overnight (about 16 h). On the next day, the samples were filtered into a V-bottom plate with a micronic filterplate to separate the solid material from the solution. Then, all solutions were diluted into 96 well V-bottom microplates and analyzed by UPLC-UV. The calibration line was established by UPLC using 5 different dilutions of the compound in a DMSO stock solution, made in micronic tubes (concentration approximately 1 mg/mL). Dilutions took place with DMSO. From this regression equation the solubility of the compound was determined. In cases where the drug was completely dissolved in the buffer, the value for equilibrium solubility was assumed to be higher than the value determined by UPLC and reported as such.

[3] = Dissolution test in fasted state simulated intestinal fluid (FaSSIF); format: physicochemical; conditions: FaSSIF pH 6.5, room temperature
Experimental: 0.420 g of NaOH (pellets), 3.954 g of NaH2PO4 (monohydrate) and 6.186 g of NaCl were dissolved in about 0.9 L of purified water. The pH was adjusted to 6.5 with either 1 N NaOH or 1 N HCl. The total volume of the mixture was made up to 1.0 L with purified water at room temperature.
To about 50 mL of blank FaSSIF buffer was added 0.2240 g of SIF Powder Original (Biorelevant.com Ltd, Product code: FFF03, UK), the mixture was stirred until powder was completely dissolved. The total volume of the mixture was made up to 100 mL with blank FaSSIF buffer at room temperature.
(§1) Approximately 1-2 mg of each compound was added in excess into […] of buffer at room temperature. Each sample is placed in a microanalysis glass tube, which was sonicated for 1 h and agitated for 2 h. All suspensions were left overnight (about 16 h). On the next day, all pH values were measured with a pH-meter and the samples were filtered into a V-bottom plate with a micronic filterplate to separate the solid material from the solution. Then, all solutions were diluted into 96 well V-bottom microplates and analyzed by UPLC-UV.
(§2) The calibration line was established by UPLC using 5 different dilutions of the compound in a DMSO stock solution, made in micronic tubes (concentration approximately 1 mg/mL). Dilutions took place with DMSO (in special circumstances, with acetonitrile, or 80% HCl 0.1 N/20% acetonitrile). From this regression equation the solubility of the compound was determined. In cases where the compound was completely dissolved in the buffer, the value for equilibrium solubility was assumed to be higher than the value determined by UPLC and reported as such.

[4] = Dissolution test in fed state simulated intestinal fluid (FeSSIF); format: physicochemical; conditions: FeSSIF pH 5, room temperature
Experimental: 4.040 g of NaOH (pellets), 8.650 g of glacial acetic acid and 11.874 g of NaCl were dissolved in about 0.9 L of purified water. The pH was adjusted to 5 with either 1 N NaOH or 1 N HCl. The total volume of the mixture was made up to 1.0 L with purified water at room temperature.
To about 50 mL of blank FeSSIF buffer was added 1.120 g of SIF Powder Original (Biorelevant.com Ltd, Product code: FFF03, UK), the mixture was stirred until powder was completely dissolved. The total volume of the mixture was made up to 100 mL with blank FeSSIF buffer at room temperature.
as §1, §2

human TLR7 = biological target: T1, human TLR7 (Homo sapiens, UniProt Q9NYK1); assay: HEK293-Blue-hTLR7 cells assay (SEAP reporter, NF-κB activation)
T1 sequence (Q9NYK1 27-1049): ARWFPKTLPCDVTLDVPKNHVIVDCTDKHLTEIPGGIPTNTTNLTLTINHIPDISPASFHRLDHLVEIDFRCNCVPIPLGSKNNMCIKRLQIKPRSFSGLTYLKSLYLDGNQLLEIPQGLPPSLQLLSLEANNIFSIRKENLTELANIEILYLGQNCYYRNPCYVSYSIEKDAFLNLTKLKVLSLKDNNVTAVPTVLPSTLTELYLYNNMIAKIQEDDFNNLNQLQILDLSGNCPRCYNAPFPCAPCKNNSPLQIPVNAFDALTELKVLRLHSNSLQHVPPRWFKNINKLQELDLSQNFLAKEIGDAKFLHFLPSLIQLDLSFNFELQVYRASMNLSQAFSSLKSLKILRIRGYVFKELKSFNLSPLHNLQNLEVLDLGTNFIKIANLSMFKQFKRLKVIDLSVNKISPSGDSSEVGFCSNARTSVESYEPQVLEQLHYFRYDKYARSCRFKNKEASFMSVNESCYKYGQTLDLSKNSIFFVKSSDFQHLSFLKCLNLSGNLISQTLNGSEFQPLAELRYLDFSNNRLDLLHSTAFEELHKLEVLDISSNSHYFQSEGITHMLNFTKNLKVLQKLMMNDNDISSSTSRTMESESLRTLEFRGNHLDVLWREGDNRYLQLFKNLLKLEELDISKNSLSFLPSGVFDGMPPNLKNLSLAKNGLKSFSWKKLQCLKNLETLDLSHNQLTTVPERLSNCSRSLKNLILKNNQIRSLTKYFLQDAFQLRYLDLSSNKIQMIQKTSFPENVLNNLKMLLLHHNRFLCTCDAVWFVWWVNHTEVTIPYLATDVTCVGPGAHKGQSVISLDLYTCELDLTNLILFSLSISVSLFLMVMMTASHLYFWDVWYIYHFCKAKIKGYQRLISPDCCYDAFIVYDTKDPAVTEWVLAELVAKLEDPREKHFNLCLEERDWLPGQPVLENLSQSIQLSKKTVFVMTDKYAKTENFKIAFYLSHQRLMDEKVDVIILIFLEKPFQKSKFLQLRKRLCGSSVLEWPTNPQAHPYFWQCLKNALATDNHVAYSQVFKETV
Text: A stable HEK293-Blue-h TLR7 cell line was purchased from InvivoGen (Cat. #: hkb-htlr7, San Diego, California, USA). These cells were designed for studying the stimulation of human TLR7 by monitoring the activation of NF-κB. A SEAP (secreted embryonic alkaline phosphatase) reporter gene was placed under the control of the IFN-β minimal promoter fused to five NF-κB and AP-1-binding sites. The SEAP was induced by activating NF-κB and AP-1 via stimulating HEK-Blue hTLR7 cells with TLR7 ligands. Therefore the reporter expression was regulated by the NF-κB promoter upon stimulation of human TLR7 for 20 hrs. The cell culture supernatant SEAP reporter activity was determined using QUANTI-Blue™ kit (Cat. #: rep-qb1, Invivogen, San Diego, Ca, USA) at a wavelength of 640 nm, a detection medium that turns purple or blue in the presence of alkaline phosphatase.
HEK293-Blue-hTLR7 cells were incubated at a density of 250,000˜450,000 cells/mL in a volume of 180 μL in a 96-well plate in Dulbecco's Modified Eagle's medium (DMEM) containing 4.5 g/L glucose, 50 U/mL penicillin, 50 mg/mL streptomycin, 100 mg/mL Normocin, 2 mM L-glutamine, 10% (V/V) heat-inactivated fetal bovine serum for 24 hrs. Then the HEK293-Blue-hTLR7 cells were incubated with addition of 20 μL test compound in a serial dilution in the presence of final DMSO at 1% and perform incubation under 37° C. in a CO2 incubator for 20 hrs.

Compound | solubility kinetic [1] | solubility thermodynamic [2] | FaSSIF [3] | FeSSIF [4] | EC50 (human TLR7) | EC50 (human TLR7; read-out: HEK293-Blue-h TLR7 (EC50 (μM)), HEK293-Blue-hTLR7 cells, 20 hrs incubation, SEAP reporter)
CCCS(=N)(=O)c1nc(N)c2[nH]c(=O)n(Cc3ccc(Cl)nc3)c2n1 (stereo not drawn) [RO14, reference compound] | 69 µg/mL | 33 µg/mL (≈ 0.0864 mM) | 14 µg/mL | 21 µg/mL |  | 0.017 µM
CC[P@](C)(=O)c1nc(N)c2[nH]c(=O)n(Cc3ccc(OCCN(C)C)nc3)c2n1 [Example 16-B, 6-amino-9-[[6-[2-(dimethylamino)ethoxy]-3-pyridyl]methyl]-2-[(S)-ethyl(methyl)phosphoryl]-7H-purin-8-one] | > 560 µg/mL | 3450 µg/mL (≈ 8.23 mM) | 784 µg/mL | 1464 µg/mL |  | 
CN(C)CCOc1ccc(Cn2c(=O)[nH]c3c(N)nc(P(C)(C)=O)nc32)cn1 [Example 2, 6-amino-9-[[6-[2-(dimethylamino)ethoxy]-3-pyridyl]methyl]-2-dimethylphosphoryl-7H-purin-8-one] | > 540 µg/mL | 2780 µg/mL (≈ 6.85 mM) | 3519 µg/mL | 4801 µg/mL | 0.019 µM | 
CC[P@@](C)(=O)c1nc(N)c2[nH]c(=O)n(Cc3ccc(OCCN(C)C)nc3)c2n1 [Example 16-A, 6-amino-9-[[6-[2-(dimethylamino)ethoxy]-3-pyridyl]methyl]-2-[(R)-ethyl(methyl)phosphoryl]-7H-purin-8-one] | > 560 µg/mL | 1900 µg/mL (≈ 4.53 mM) | 1799 µg/mL | 2371 µg/mL |  | 
CC[P@@](C)(=O)c1nc(N)c2[nH]c(=O)n(Cc3ccc(N4CCN(C)CC4)nc3)c2n1 [Example 13-A, 6-amino-2-[(R)-ethyl(methyl)phosphoryl]-9-[[6-(4-methylpiperazin-1-yl)-3-pyridyl]methyl]-7H-purin-8-one] | > 530 µg/mL | 2380 µg/mL (≈ 5.53 mM) | 2368 µg/mL | 4672 µg/mL |  | 
CN(C)CCNc1ccc(Cn2c(=O)[nH]c3c(N)nc(P(C)(C)=O)nc32)cn1 [Example 1, 6-amino-9-[[6-[2-(dimethylamino)ethylamino]-3-pyridyl]methyl]-2-dimethylphosphoryl-7H-purin-8-one] | > 540 µg/mL | 929 µg/mL (≈ 2.3 mM) | 2527 µg/mL | 3077 µg/mL | 0.034 µM | 

Further lines, with some results ahead:

solubility kinetic [1] | solubility thermodynamic [2] | FaSSIF [3] | FeSSIF [4] | EC50 (human TLR7) | Compound | EC50 (human TLR7; read-out: HEK293-Blue-h TLR7 (EC50 (μM)), HEK293-Blue-hTLR7 cells, 20 hrs incubation, SEAP reporter)
> 560 µg/mL | > 4970 µg/mL | >3733 µg/mL | >4267 µg/mL | 0.012 µM | CC[P@](C)(=O)c1nc(N)c2[nH]c(=O)n(Cc3ccc(NCCN(C)C)nc3)c2n1 [Example 15-B, 6-amino-9-[[6-[2-(dimethylamino)ethylamino]-3-pyridyl]methyl]-2-[(S)-ethyl(methyl)phosphoryl]-7H-purin-8-one] | 
> 580 µg/mL | 3000 µg/mL (≈ 6.94 mM) | 3436 µg/mL | 4536 µg/mL |  | CCC[P@](C)(=O)c1nc(N)c2[nH]c(=O)n(Cc3ccc(NCCN(C)C)nc3)c2n1 [Example 18-A, 6-amino-9-[[6-[2-(dimethylamino)ethylamino]-3-pyridyl]methyl]-2-[(S)-methyl(propyl)phosphoryl]-7H-purin-8-one] | 
> 580 µg/mL | 4020 µg/mL (≈ 9.3 mM) | >3767 µg/mL | >5000 µg/mL |  | CCC[P@@](C)(=O)c1nc(N)c2[nH]c(=O)n(Cc3ccc(NCCN(C)C)nc3)c2n1 [Example 18-B, 6-amino-9-[[6-[2-(dimethylamino)ethylamino]-3-pyridyl]methyl]-2-[(R)-methyl(propyl)phosphoryl]-7H-purin-8-one] | 
> 560 µg/mL | 4060 µg/mL (≈ 9.7 mM) | 3074 µg/mL | 3987 µg/mL | 0.018 µM | CC[P@@](C)(=O)c1nc(N)c2[nH]c(=O)n(Cc3ccc(NCCN(C)C)nc3)c2n1 [Example 15-A, 6-amino-9-[[6-[2-(dimethylamino)ethylamino]-3-pyridyl]methyl]-2-[(R)-ethyl(methyl)phosphoryl]-7H-purin-8-one] | 
